Data published in patent publication US10196454B2, “Anti-PMEL17 antibodies and immunoconjugates” (GENENTECH, INC., priority 2012, dated 2019).
Like-named read-outs stand apart in the source and are kept apart here.

B1: 14C10: anti-PMEL17 antibody that binds to the same deletion fragments as 17A9 (antibody, V domains shown)
VH: QVTLKESGPGILQPSQTLSLTCSFSGFSLSTSAMGIGWIRQPSGKGLEWLAHIWWDDDKRYNPALKSRLTISKDTSRNQVFLKIASVDTADTATYFCARIDGIYDGSFYAMDYWGQGTSVTVSS
VL: DIVLTQSPASLAVSLGQRATISCRASESVDSYGNSFMHWYQQKPGQPPKLLIYRASNLESGIPARFSGSGSRTDFTLTINPVEADDVANYYCQQSNEDYTFGGGTKLEIK
B2: 17A9 ADC (conjugate)
VH: EVQLQQSGPELVKPGASMKISCKSSGYSFTRYTMNWVKQSHGKNLEWIGVINPYNGGTVYNQKFKGKATLTVDKSSSTAYMELLSLTSEDSAVYYCARTDYDGYAMDYWGQGTSVTVSS
VL: DVQITQSPSYLAASPGETITINCRATKSISKYLAWYQEQPGKTNNLLIYSGSTLQSGIPSRFSGSGSGTDFTLTISSLEPEDFAMYYCQQHNEYPYTFGSGTKLEIK
B3: anti-PMEL17-vc-MMAE: anti-PMEL17 ADC with protease-cleavable val-cit linker and MMAE (17A9 or ch17A9 with MC-vc-PAB-MMAE) (conjugate)
VH: B2 VH
VL: B2 VL

What was measured:
[1] = test system: in vitro derived resistant UACC-257X2.2 cells; assay: In vitro cell proliferation (CellTiter-Glo, five days); type: cell-based; conditions: in vitro derived resistant line
Method: For resistance developed in vitro, UACC-257X2.2 cells were adapted to increasing concentrations of anti-ETBR-vc-MMAE in culture dishes over the course of two months.
(§1) In vitro cell proliferation of the cell lines in the presence of the immunoconjugates was assessed. Cells were plated at 1,500 cells per well in 50 μL of normal growth medium in 96-well clear-bottom plates. Twenty-four hours later, an additional 50 μL of culture medium with serial dilutions of immunoconjugates were added to triplicate wells. Five days later, cell survival was determined using CellTiter-Glo Luminescent Cell Viability Reagent (G7572, Promega Corporation, Madison, Wis.) using an EnVision 2101 Mutilabel Reader (Perkin-Elmer, Waltham, Mass.).

[2] = test system: parental UACC-257X2.2 cells; assay: as above; type: cell-based; conditions: parental line
Method: as §1

[3] = test system: in vivo derived resistant UACC-257X2.2 cells; assay: as above; type: cell-based; conditions: in vivo derived resistant line
Method: Tumor #359 was harvested and the cells were dissociated for growth in vitro (referred to herein as in vivo-derived resistant UACC-257X2.2 cells).
as §1

human PMEL17 = assay: Monoclonal antibody epitope mapping with PMEL17 deletion mutants (immunoblot, FACS); type: binding; conditions: N-terminal deletions by immunoblot; C-terminal deletions in 293 cells by FACS
Method: All the constructs for epitope mapping were made by PCR amplification of each fragment and subcloning into either pRKtkneo vector with an N-terminal gD tag, or pRKtkneo vector with an N-terminal gD tag and a C-terminal GPI anchor. Transfections were performed using FuGene 6 (Roche Applied Science), and empty vector was used as control. Full-length human PMEL17 was subcloned into pRKtkneo vector with an N-terminal gD tag.
A signal sequence and a gD epitope tag were fused to the N-terminal sequence of a series of deletion mutants, which were then expressed in mammalian cells and the lysates analyzed by immuoblotting for reactivity with 17A9 or 77E6. The N-terminal deletions tested included Δ100, Δ255, Δ292, Δ315, Δ444, Δ515, and Δ567.
In addition, C-terminal deletions with an N-terminal gD tag and a C-terminal GPI anchor were transiently transfected into 293 cells and analyzed for antibody binding by FACS. The C-terminal deletions tested included PMEL1725-125, PMEL1725-105, PMEL1725-85, PMEL1725-65, and PMEL1725-45. Finally, a PMEL17 fragment comprising the region from amino acid 515 through the transmembrane domain, but lacking the cytoplasmic region (“Δ515-C”) and a PMEL17 fragment comprising just the cytoplasmic domain with an N-terminal gD tag and a C-terminal GPI anchor were analyzed by immuoblotting for reactivity with 77E6.

[4] = test system: PC3 cells stably expressing PMEL17; assay: Inhibition of in vitro cell proliferation (CellTiter-GloII); type: cell-based
Method: Proliferation in the presence of 17A9 ADC was assessed using PMEL17+ melanoma cells and PC3 cells stably expressing PMEL17 plated at 2,000 per well in 50 μL of normal growth medium in 96-well clear-bottom plates (PerkinElmer). Twenty-four hours later, an additional 50 μL of culture medium with serial dilutions of 17A9 ADC were added to triplicate wells. Three or five days later, cell numbers were determined using CellTiter-GloII (Promega Corp.) and with an EnVision 2101 Mutilabel Reader (PerkinElmer).

[5] = test system: vector control PC3 parental cell line; assay: as above; type: cell-based; conditions: out to 10 μg/ml of ADC
[6] = test system: SK-MEL-23 melanoma cell line xenograft; assay: SK-MEL-23 melanoma cell line xenograft; type: in vivo, mice; conditions: single IV injection, 6 mg/kg
Method: The efficacy of the anti-PMEL17 ADCs was investigated using an SK-MEL-23 melanoma cell line xenograft model. Female CRL Nu/Nu mice from Charles River Laboratories were inoculated subcutaneously in the dorsal right flank with five million SK-MEL-23 cells in HBSS with Matrigel. […] When tumor volumes reached ˜200 mm^3 (day 0), animals were randomized into groups of 10 each and administered a single IV injection of 2 or 6 mg/kg 17A9 ADC. MMAE conjugated to anti-GP120 antibody was used as a control. Tumor volumes were measured twice per week until study end. Tumor volumes were determined using digital calipers (Fred V. Fowler Company, Inc.) using the formula (L×w×W)/2. Tumor growth inhibition (% TGI) was calculated as the percentage of the area under the fitted curve (AUC) for the respective dose group per day in relation to the vehicle, such that % TGI=100×[1−(AUCtreatment/day)/(AUCvehicle/day)]. Curve fitting was applied to Loge transformed individual tumor volume data using a linear mixed-effects model using the R package nlme, version 3.1-96 in R v2.10.1.

normal human melanocytes = assay: Toxicity of anti-PMEL17 ADC in normal melanocytes (CellTiter-GloII, five days); type: cell-based; conditions: versus SK-MEL-5 and SK-MEL-23, five days
Method: Finally, SK-MEL-5 and SK-MEL-23 melanoma cells, or normal human melanocytes, were incubated with serial dilutions of the 17A9 ADC and five days later cell numbers were determined using CellTiter-GloII.

[7] = linker-drug without antibody, read-out: EC50

Molecule | EC50 [1, 7] [nM] | EC50 [2, 7] [nM] | EC50 [3, 7] [nM] | also measured
MC-PNU-159682 | 0.15 | 0.18 | 0.133 | –
MC-vc-PAB-MMAE | 3.5 | 0.28 | 0.77 | –
MC-vc-PAB-PNU-159682 | 6.6 | 2 | 4.2 | –
B1 | – | – | – | binding to PMEL17 deletion mutants (human PMEL17): binds to the same deletion fragments as 17A9
B2 | – | – | – | cell killing [4]: effectively killed; cell killing [5]: no killing; effect on tumor growth [6]: retard tumor growth for several weeks; IC50 on normal melanocytes relative to melanoma cell lines (normal human melanocytes): ~100 fold
B3 | – | – | – | EC50 ([1]; immunoconjugates): 0.764 µg/mL; EC50 ([2]; immunoconjugates): 0.033 µg/mL; EC50 ([3]; immunoconjugates): 0.119 µg/mL
